These results are taken from ChEMBL document CHEMBL1909046, “DrugMatrix in vitro pharmacology data”.

The structures appear in SMILES notation. Where a SMILES comes first, the peptide text is derived from it. Bridges are numbered along the chain shown (N, C = ends). [ ]: non-standard residue; d: D form. The star is where a group is joined. Ileψ(thiazoline)Cys = CC[C@H](C)[C@H](N)C1=N[C@H](C(=O)*)CS1; dOrn = NCCC[C@@H](N)C(=O)O

The target of one data set is Acetylcholinesterase (Homo sapiens, UniProt P22303). The data set is described as follows: DRUGMATRIX: Acetylcholinesterase enzyme inhibition (substrate: acetylthiocholine). It is filed as cell-based, HEK293. To be noted: hek293; Not Active = under 50% inhibition at 10 µM.
Chain of Acetylcholinesterase (P22303 whole entry): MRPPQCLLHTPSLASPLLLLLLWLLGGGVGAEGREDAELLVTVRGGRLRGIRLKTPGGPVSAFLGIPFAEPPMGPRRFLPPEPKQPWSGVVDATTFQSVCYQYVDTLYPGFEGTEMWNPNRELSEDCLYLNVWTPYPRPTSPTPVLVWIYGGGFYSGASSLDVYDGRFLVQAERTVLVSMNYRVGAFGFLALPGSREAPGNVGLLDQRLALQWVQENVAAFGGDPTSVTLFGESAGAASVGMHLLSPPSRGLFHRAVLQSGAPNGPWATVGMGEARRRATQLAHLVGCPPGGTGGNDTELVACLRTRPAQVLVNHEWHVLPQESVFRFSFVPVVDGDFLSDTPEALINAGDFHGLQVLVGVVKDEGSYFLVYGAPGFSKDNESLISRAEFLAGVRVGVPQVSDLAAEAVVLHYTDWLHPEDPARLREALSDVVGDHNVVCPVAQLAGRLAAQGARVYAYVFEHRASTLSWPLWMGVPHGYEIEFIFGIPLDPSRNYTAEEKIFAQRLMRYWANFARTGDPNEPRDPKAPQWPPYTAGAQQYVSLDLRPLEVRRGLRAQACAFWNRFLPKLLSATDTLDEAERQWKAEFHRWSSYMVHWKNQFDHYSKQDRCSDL
A further data set deals with Cytochrome P450 2C19 (Homo sapiens, UniProt P33261). To be noted: bti-tn-5b1-4.
Chain of Cytochrome P450 2C19 (P33261 whole entry): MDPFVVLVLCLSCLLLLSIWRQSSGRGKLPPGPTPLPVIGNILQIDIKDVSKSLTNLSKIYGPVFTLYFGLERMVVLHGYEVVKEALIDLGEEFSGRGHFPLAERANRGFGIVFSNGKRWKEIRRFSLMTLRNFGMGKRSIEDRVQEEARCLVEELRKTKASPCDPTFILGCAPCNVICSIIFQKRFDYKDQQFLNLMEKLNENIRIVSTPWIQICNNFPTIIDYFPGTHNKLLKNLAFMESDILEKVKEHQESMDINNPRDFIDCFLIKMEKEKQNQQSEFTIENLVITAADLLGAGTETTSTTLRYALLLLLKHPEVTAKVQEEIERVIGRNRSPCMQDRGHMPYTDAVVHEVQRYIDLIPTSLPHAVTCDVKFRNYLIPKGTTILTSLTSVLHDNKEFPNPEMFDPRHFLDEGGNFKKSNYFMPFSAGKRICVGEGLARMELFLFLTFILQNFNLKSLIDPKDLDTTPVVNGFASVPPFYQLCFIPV
Another data set addresses Carbonic anhydrase 2 (Homo sapiens, UniProt P00918). In words: DRUGMATRIX: Carbonic Anhydrase II enzyme inhibition (substrate: 4-Nitrophenyl acetate (4-NPA)). It is filed as tissue-based, Erythrocyte. To be noted: Not Active = under 50% inhibition at 10 µM.
The target in another data set is T1, Cytochrome P450 2A6 (Homo sapiens, UniProt P11509). Note: in other assays of this panel Not Active means under 50% inhibition at 10 µM.
T1 sequence (P11509 whole entry): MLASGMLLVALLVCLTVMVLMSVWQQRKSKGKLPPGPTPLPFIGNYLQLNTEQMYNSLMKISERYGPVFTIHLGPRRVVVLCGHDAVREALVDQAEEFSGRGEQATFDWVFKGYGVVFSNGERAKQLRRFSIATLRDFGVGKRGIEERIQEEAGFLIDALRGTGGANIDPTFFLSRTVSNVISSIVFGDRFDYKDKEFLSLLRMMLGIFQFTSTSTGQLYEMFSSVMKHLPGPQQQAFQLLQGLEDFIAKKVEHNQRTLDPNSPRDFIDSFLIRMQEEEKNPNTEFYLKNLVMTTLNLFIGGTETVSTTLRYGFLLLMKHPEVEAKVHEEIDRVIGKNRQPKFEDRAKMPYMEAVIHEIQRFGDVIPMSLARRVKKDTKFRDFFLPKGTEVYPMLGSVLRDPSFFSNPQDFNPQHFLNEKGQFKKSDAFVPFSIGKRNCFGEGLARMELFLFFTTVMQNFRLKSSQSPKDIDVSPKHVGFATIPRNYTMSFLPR
To be noted: bti-tn-5b1-4.

The target of a further data set is T2, Cytochrome P450 1A2 (Homo sapiens, UniProt P05177). Note: in other assays of this panel Not Active means under 50% inhibition at 10 µM.
T2 sequence (P05177 whole entry): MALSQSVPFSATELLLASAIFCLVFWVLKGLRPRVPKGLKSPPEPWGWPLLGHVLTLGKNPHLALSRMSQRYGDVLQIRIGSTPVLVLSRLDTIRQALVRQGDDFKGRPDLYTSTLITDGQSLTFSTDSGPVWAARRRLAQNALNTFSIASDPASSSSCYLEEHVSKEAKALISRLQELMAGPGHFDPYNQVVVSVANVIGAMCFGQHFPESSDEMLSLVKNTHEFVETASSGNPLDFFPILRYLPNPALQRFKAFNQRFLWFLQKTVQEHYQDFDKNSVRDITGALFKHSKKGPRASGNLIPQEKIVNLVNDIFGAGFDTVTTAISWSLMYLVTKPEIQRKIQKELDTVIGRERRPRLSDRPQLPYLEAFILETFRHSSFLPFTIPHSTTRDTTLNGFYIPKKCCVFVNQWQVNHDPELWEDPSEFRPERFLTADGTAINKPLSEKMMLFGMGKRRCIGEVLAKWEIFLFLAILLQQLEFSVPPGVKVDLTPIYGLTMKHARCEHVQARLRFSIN
To be noted: bti-tn-5b1-4.

The target of a further data set is T3, Thromboxane-A synthase (Homo sapiens, UniProt P24557).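 Note: enzyme inhibition assay with PGH2 supplied as substrate; in other assays of this panel Not Active means under 50% inhibition at 10 µM.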
T3 sequence (P24557 whole entry): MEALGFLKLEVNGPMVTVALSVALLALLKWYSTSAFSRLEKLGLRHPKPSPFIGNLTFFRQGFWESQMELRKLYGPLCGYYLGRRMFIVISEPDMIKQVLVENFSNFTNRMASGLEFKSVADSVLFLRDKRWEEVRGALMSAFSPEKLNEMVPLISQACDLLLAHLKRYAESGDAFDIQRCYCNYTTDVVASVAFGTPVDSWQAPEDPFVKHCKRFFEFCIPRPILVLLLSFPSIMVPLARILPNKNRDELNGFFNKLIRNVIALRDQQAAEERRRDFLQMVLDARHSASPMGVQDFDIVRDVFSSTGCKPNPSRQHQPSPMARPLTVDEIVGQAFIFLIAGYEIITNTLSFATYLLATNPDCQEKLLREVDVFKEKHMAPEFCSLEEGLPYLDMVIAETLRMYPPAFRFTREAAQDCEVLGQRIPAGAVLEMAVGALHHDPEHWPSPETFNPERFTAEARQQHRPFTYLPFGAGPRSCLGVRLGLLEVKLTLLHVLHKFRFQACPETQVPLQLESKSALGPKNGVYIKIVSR
The data set is described as follows: biochemical. It is filed as tissue-based, Platelet. To be noted: platelet.

In the next data set the target is Cytochrome P450 3A4 (Homo sapiens, UniProt P08684). To be noted: bti-tn-5b1-4. Note: in other assays of this panel Not Active means under 50% inhibition at 10 µM.
Chain of Cytochrome P450 3A4 (P08684 whole entry): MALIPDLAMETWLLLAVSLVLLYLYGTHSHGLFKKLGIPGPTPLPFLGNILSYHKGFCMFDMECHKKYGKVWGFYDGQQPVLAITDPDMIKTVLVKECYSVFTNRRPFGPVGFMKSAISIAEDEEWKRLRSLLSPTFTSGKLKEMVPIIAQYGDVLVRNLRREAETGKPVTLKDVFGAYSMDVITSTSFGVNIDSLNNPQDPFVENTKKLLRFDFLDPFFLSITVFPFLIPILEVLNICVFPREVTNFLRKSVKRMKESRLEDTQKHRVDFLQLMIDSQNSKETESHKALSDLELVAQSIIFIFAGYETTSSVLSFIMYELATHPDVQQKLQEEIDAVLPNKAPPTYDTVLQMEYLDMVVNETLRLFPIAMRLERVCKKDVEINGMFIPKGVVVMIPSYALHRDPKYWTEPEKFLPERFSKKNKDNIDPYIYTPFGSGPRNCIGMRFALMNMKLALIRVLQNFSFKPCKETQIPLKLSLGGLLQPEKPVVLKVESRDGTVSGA
The target of the next data set is Vasopressin V1a receptor (Homo sapiens, UniProt P37288). It is filed as cell membranes, Membrane. To be noted: hek293. Note: in other assays of this panel Not Active means under 50% inhibition at 10 µM.
Chain of Vasopressin V1a receptor (P37288 whole entry): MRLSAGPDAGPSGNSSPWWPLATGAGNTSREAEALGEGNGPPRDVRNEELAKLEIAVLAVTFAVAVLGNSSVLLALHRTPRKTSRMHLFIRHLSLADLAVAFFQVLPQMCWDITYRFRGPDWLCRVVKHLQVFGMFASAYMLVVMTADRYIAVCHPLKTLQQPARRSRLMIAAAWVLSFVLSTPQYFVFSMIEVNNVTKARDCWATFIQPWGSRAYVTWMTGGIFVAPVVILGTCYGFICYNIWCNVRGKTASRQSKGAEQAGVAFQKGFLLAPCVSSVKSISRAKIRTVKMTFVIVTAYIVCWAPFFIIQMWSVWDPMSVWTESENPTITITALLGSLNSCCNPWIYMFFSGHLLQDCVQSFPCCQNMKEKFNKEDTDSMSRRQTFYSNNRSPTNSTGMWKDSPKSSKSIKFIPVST
Data set [1] concerns the target T4, Neuropeptide Y receptor type 2 (Homo sapiens, UniProt P49146). Note: in other assays of this panel Not Active means under 50% inhibition at 10 µM.
T4 sequence (P49146 whole entry): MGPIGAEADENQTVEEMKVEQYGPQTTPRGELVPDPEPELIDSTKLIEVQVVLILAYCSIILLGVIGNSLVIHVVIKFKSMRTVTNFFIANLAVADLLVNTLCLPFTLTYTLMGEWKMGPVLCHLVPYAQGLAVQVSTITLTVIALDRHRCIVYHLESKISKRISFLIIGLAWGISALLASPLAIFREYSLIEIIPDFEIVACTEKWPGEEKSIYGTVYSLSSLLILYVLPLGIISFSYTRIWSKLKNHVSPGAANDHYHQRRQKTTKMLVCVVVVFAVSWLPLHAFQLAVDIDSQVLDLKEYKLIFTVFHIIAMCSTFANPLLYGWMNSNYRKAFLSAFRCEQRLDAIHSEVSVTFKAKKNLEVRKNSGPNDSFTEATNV
It is filed as cell membranes, Membrane. To be noted: kan-ts.

The target of data set [2] is Voltage-gated inwardly rectifying potassium channel KCNH2 (Homo sapiens, UniProt Q12809). To be noted: hek293. Note: in other assays of this panel Not Active means under 50% inhibition at 10 µM.
Chain of Voltage-gated inwardly rectifying potassium channel KCNH2 (Q12809 whole entry): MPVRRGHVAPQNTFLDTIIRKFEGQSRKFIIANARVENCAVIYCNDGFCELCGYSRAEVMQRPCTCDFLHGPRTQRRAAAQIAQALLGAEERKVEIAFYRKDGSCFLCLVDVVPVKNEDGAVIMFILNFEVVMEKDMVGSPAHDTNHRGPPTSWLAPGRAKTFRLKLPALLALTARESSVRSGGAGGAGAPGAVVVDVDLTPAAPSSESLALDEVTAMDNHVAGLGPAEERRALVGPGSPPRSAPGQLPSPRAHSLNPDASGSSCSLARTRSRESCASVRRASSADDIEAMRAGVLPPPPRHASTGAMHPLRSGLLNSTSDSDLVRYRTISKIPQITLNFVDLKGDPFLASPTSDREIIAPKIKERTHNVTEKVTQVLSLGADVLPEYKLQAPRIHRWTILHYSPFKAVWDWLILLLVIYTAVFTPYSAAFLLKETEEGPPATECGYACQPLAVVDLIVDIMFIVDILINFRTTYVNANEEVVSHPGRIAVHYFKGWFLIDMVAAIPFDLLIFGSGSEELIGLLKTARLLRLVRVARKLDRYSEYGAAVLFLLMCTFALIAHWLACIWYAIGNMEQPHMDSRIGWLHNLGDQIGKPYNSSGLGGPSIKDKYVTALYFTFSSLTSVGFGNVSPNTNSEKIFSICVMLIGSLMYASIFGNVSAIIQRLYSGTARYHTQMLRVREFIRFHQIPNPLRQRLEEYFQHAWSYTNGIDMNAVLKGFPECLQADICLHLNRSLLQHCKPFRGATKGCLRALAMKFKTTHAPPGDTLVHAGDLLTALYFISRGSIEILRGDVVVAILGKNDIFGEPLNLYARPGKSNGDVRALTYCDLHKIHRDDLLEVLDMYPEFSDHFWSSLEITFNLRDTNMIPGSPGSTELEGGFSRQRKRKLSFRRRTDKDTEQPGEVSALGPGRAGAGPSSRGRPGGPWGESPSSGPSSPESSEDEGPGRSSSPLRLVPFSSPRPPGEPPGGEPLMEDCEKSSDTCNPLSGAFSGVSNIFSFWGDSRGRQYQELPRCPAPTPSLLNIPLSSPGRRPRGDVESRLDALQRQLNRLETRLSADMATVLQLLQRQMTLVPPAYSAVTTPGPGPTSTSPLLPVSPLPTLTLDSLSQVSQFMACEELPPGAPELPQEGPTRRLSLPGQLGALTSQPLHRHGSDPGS
Throughout, for Ki: in other assays of this panel Not Active means under 50% inhibition at 10 µM.

For `COC1=CC(=O)C[C@@H](C)[C@]12Oc1c(Cl)c(OC)cc(OC)c1C2=O` [GRISEOFULVIN], the half-maximal inhibitory concentration (IC50) result at Acetylcholinesterase, against Cytochrome P450 2C19, against Carbonic anhydrase 2 (erythrocyte), against Cytochrome P450 2A6, against Cytochrome P450 1A2 and against Thromboxane-A synthase was “Not Active” throughout. The IC50 entry (against Cytochrome P450 3A4; against Vasopressin V1a receptor; in data set [1]; in [2]) was “Not Active” each time. Moreover, the Ki result (at Cytochrome P450 2C19; at Cytochrome P450 2A6; on Cytochrome P450 1A2; on Cytochrome P450 3A4; in [2]) was “Not Active” in each case.

In the case of `CC[C@H](C)[C@H](N)C1=N[C@H](C(=O)N[C@@H](CC(C)C)C(=O)N[C@H](CCC(=O)O)C(=O)N[C@H](C(=O)N[C@H]2CCCCNC(=O)[C@H](CC(N)=O)NC(=O)[C@@H](CC(=O)O)NC(=O)[C@H](Cc3cnc[nH]3)NC(=O)[C@@H](Cc3ccccc3)NC(=O)[C@H]([C@@H](C)CC)NC(=O)[C@@H](CCCN)NC2=O)[C@@H](C)CC)CS1` [BACITRACIN] ({Ileψ(thiazoline)Cys}-L[dE]IK[dOrn]I[dF]H[dD]N; lactam 4-C), the IC50 result against Acetylcholinesterase, against Cytochrome P450 2C19, on Carbonic anhydrase 2 (erythrocyte), at Cytochrome P450 2A6, against Cytochrome P450 1A2 and against Thromboxane-A synthase was “Not Active” each time. Moreover, the IC50 result (against Cytochrome P450 3A4; at Vasopressin V1a receptor; in data set [1]; in [2]) was “Not Active” each time. For the same molecule, the Ki result (on Cytochrome P450 2C19; on Cytochrome P450 2A6; on Cytochrome P450 1A2; on Cytochrome P450 3A4; in data set [2]) was “Not Active” in each case.

Take `CCCC[C@@H](CC)COC(=O)c1ccccc1C(=O)OC[C@@H](CC)CCCC` [BIS(2-ETHYLHEXYL)PHTHALATE]: the IC50 result on Acetylcholinesterase was “Not Active”; against Cytochrome P450 2C19, “Not Active”; at Carbonic anhydrase 2 (read-out: IC50) it was 66.9 µM; against Cytochrome P450 2A6, “Not Active”; at Cytochrome P450 1A2, “Not Active”; on Thromboxane-A synthase, “Not Active”. Besides, the IC50 result (on Cytochrome P450 3A4; at Vasopressin V1a receptor; in data set [1]; in data set [2]) was “Not Active” in each case. Also, the Ki entry (on Cytochrome P450 2C19; at Cytochrome P450 2A6; on Cytochrome P450 1A2; at Cytochrome P450 3A4; in data set [2]) was “Not Active” in each case.

Take `N#C[C@H](O[C@@H]1O[C@H](CO[C@@H]2O[C@H](CO)[C@@H](O)[C@H](O)[C@H]2O)[C@@H](O)[C@H](O)[C@H]1O)c1ccccc1` [AMYGDALIN]: the IC50 entry on Acetylcholinesterase, at Cytochrome P450 2C19, against Carbonic anhydrase 2 (erythrocyte), against Cytochrome P450 2A6, on Cytochrome P450 1A2 and at Thromboxane-A synthase was “Not Active” throughout. The IC50 result (at Cytochrome P450 3A4; against Vasopressin V1a receptor; in data set [1]; in [2]) was “Not Active” in each case. Also, the Ki result (on Cytochrome P450 2C19; at Cytochrome P450 2A6; at Cytochrome P450 1A2; at Cytochrome P450 3A4; in [2]) was “Not Active” throughout.

Take `Nc1nc2c(ncn2COC(CO)CO)c(=O)[nH]1` [GANCICLOVIR]: the IC50 result at Acetylcholinesterase, on Cytochrome P450 2C19, on Carbonic anhydrase 2 (erythrocyte), against Cytochrome P450 2A6, against Cytochrome P450 1A2 and at Thromboxane-A synthase was “Not Active” throughout. The IC50 entry (against Cytochrome P450 3A4; on Vasopressin V1a receptor; in data set [1]; in data set [2]) was “Not Active” throughout. In addition, the Ki result (on Cytochrome P450 2C19; at Cytochrome P450 2A6; at Cytochrome P450 1A2; on Cytochrome P450 3A4; in data set [2]) was “Not Active” throughout.

In the case of `CC1=Nc2ccc(Cl)cc2S(=O)(=O)N1` [DIAZOXIDE], the IC50 result against Acetylcholinesterase, against Cytochrome P450 2C19, at Carbonic anhydrase 2 (erythrocyte), against Cytochrome P450 2A6, against Cytochrome P450 1A2 and against Thromboxane-A synthase was “Not Active” each time. Further, the half-inhibitory concentration (IC50) result (on Cytochrome P450 3A4; against Vasopressin V1a receptor; in [1]; in [2]) was “Not Active” in each case. The Ki entry (at Cytochrome P450 2C19; on Cytochrome P450 2A6; at Cytochrome P450 1A2; on Cytochrome P450 3A4; in data set [2]) was “Not Active” each time.

On to `CN(C)CCCC1(c2ccc(F)cc2)OCc2cc(C#N)ccc21` (stereo not drawn) [CITALOPRAM], for which the IC50 result against Acetylcholinesterase, on Cytochrome P450 2C19, at Carbonic anhydrase 2 (erythrocyte), against Cytochrome P450 2A6, on Cytochrome P450 1A2 and against Thromboxane-A synthase was “Not Active” each time. Moreover, the IC50 result (against Cytochrome P450 3A4; against Vasopressin V1a receptor; in data set [1]) was “Not Active” throughout. Moreover, the Ki result on Cytochrome P450 2C19, on Cytochrome P450 2A6, on Cytochrome P450 1A2 and on Cytochrome P450 3A4 was “Not Active” in each case.

For orientation: IC50 means the midpoint of a concentration-inhibition curve.
